Laboratory results taken from US20070128217A1 (priority 2003, published 2007).

What was measured:
[1] = tested on: control sera (pooled serum of ten healthy LUMC hospital workers; commercial negative donor pooled serum from the Dutch bloodbank); assay type: binding, human; set-up: Binding of Control serum LUMC to linear peptides / Binding of Control serum Blood-bank to linear peptides / Binding of Control serum LUMC to looped peptides / Binding of Control Serum Blood-Bank to Looped peptides / Binding of Control serum LUMC to linear peptides of the protein M of SARS-CoV Urbani / Binding of Control serum Blood-bank to linear peptides of the protein M of SARS-CoV Urbani / Binding of Control serum LUMC to looped peptides of the protein M of SARS-CoV Urbani / Binding of Control Serum Blood-Bank to Looped peptides of the protein M of SARS-CoV Urbani: unit not given here
[2] = tested on: antibodies in sera from SARS patients (sera 1a, 1b, 2, 6, 37, 62, London, SARS-yellow, SARS-green); assay type: binding, human; set-up: Binding of serum 6 to linear peptides of protein X1 of SARS-CoV Urbani / Binding of serum 37 to linear peptides of protein X1 of SARS-CoV Urbani / Binding of serum 6 to looped/cyclic peptide (PEPSCAN-ELISA) / Binding of serum 37 to looped/cyclic peptide (PEPSCAN-ELISA) / Binding of serum 37 to looped/cyclic peptides of protein X1 of SARS-CoV Urbani / Binding of serum 6 to linear peptides of protein X2 / Binding of serum 37 to linear peptides of protein X2 / Binding of serum 37 to looped/cyclic peptides of protein X2 of SARS-CoV Urbani / Binding of serum 6 to linear peptides of protein M of SARS-CoV Urbani / Binding of serum 37 to linear peptides of protein M of SARS-CoV Urbani / Binding of serum 6 to looped/cyclic peptides of protein M of SARS-CoV Urbani / Binding of serum 37 to looped/cyclic peptides of protein M of SARS-CoV Urbani / Binding of serum 6 to linear peptides of protein X3 of SARS-CoV Urbani / Binding of serum 37 to linear peptides of protein X3 of SARS-CoV Urbani / Binding of serum 37 to looped/cyclic peptides of protein X3 of SARS-CoV Urbani / Binding of serum 6 to linear peptides of protein X4 of SARS-CoV Urbani / Binding of serum 37 to linear peptides of protein X4 of SARS-CoV Urbani / Binding of serum 37 to looped/cyclic peptides of protein X4 of SARS-CoV Urbani / Binding of serum 6 to linear peptides of protein X5 of SARS-CoV Urbani / Binding of serum 37 to linear peptides of protein X5 of SARS-CoV Urbani / Binding of serum 37 to looped/cyclic peptides of protein X5 of SARS-CoV Urbani / Binding of serum 6 to linear peptides of protein N of SARS-CoV Urbani / Binding of serum 37 to linear peptides of protein N of SARS-CoV Urbani / Binding of serum 6 to linear peptide (PEPSCAN-ELISA) / Binding of serum 1a to looped/cyclic peptides of protein N of SARS-CoV Urbani / Binding of serum 1b to looped/cyclic peptides of protein N of SARS-CoV Urbani / Binding of serum 2 to looped/cyclic peptides of protein N of SARS-CoV Urbani / Binding of serum 6 to looped/cyclic peptides of protein N of SARS-CoV Urbani / Binding of serum 37 to looped/cyclic peptides of protein N of SARS-CoV Urbani / Binding of serum 62 to looped/cyclic peptides of protein N of SARS-CoV Urbani / Binding of serum London to looped/cyclic peptides of protein N of SARS-CoV Urbani / Binding of serum SARS-green to looped/cyclic peptides of protein N of SARS-CoV Urbani: unit not given here
[3] = tested on: rabbit serum obtained by immunizing a rabbit with the SARS-CoV strain Frankfurt 1; assay type: binding; set-up: Binding of a rabbit serum to linear peptides / Binding of a rabbit serum to looped peptides / Rabbit serum linear peptides / Rabbit serum looped peptides / Binding of a rabbit serum to linear peptides of protein N of SARS-CoV Urbani (Rabbit serum linear peptides) / Binding of a rabbit serum to looped/cyclic peptides of protein N of SARS-CoV Urbani (Rabbit serum looped peptides): unit not given here

HTYQLRARSVSPKLF
Binding of Control Serum Blood-Bank to Looped peptides [1]: 0.8 | Binding of Control serum Blood-bank to linear peptides [1]: 1.0 | Binding of Control serum LUMC to linear peptides [1]: 0.9 | Binding of Control serum LUMC to looped peptides [1]: 0.7 | Binding of serum 1a to linear peptides of protein X4 of SARS-CoV Urbani [2]: 0.7 | Binding of serum 1a to looped/cyclic peptides of protein X4 of SARS-CoV Urbani [2]: 0.8 | Binding of serum 1b to linear peptides of protein X4 of SARS-CoV Urbani [2]: 0.8 | Binding of serum 1b to looped/cyclic peptides of protein X4 of SARS-CoV Urbani [2]: 0.5 | Binding of serum 2 to linear peptides of protein X4 of SARS-CoV Urbani [2]: 0.6 | Binding of serum 2 to looped/cyclic peptides of protein X4 of SARS-CoV Urbani [2]: 0.8 | Binding of serum 6 to linear peptides of protein X4 of SARS-CoV Urbani [2]: 1.0 | Binding of serum 6 to looped/cyclic peptides of protein X4 of SARS-CoV Urbani [2]: 0.8 | Binding of serum 37 to linear peptides of protein X4 of SARS-CoV Urbani [2]: 1.0 | Binding of serum 37 to looped/cyclic peptides of protein X4 of SARS-CoV Urbani [2]: 0.6 | Binding of serum 62 to linear peptides of protein X4 of SARS-CoV Urbani [2]: 0.9 | Binding of serum 62 to looped/cyclic peptides of protein X4 of SARS-CoV Urbani [2]: 0.6 | Binding of serum London to linear peptides of protein X4 of SARS-CoV Urbani [2]: 0.8 | Binding of serum London to looped/cyclic peptides of protein X4 of SARS-CoV Urbani [2]: 0.3 | Binding of serum SARS-green to linear peptides of protein X4 of SARS-CoV Urbani [2]: 0.7 | Binding of serum SARS-green to looped/cyclic peptides of protein X4 of SARS-CoV Urbani [2]: 0.4 | Binding of serum SARS-yellow to linear peptides of protein X4 of SARS-CoV Urbani [2]: 0.5 | Binding of serum SARS-yellow to looped/cyclic peptides of protein X4 of SARS-CoV Urbani [2]: 0.8 | Recognition of the peptide by the rabbit serum [3]: recognized

IDGSSGVANPAMDPI
Binding of Control Serum Blood-Bank to Looped peptides [1]: 0.6 | Binding of Control serum Blood-bank to linear peptides [1]: 0.6 | Binding of Control serum LUMC to linear peptides [1]: 0.6 | Binding of Control serum LUMC to looped peptides [1]: 0.7 | Binding of serum 1a to linear peptides of protein X1 of SARS-CoV Urbani [2]: 0.7 | Binding of serum 1a to looped/cyclic peptides of protein X1 of SARS-CoV Urbani [2]: 0.8 | Binding of serum 1b to linear peptides of protein X1 of SARS-CoV Urbani [2]: 0.6 | Binding of serum 1b to looped/cyclic peptides of protein X1 of SARS-CoV Urbani [2]: 0.7 | Binding of serum 2 to linear peptides of protein X1 of SARS-CoV Urbani [2]: 0.7 | Binding of serum 2 to looped/cyclic peptides of protein X1 of SARS-CoV Urbani [2]: 0.5 | Binding of serum 6 to linear peptides of protein X1 of SARS-CoV Urbani [2]: 0.5 | Binding of serum 6 to looped/cyclic peptides of protein X1 of SARS-CoV Urbani [2]: 0.3 | Binding of serum 37 to linear peptides of protein X1 of SARS-CoV Urbani [2]: 0.6 | Binding of serum 37 to looped/cyclic peptides of protein X1 of SARS-CoV Urbani [2]: 0.7 | Binding of serum 62 to linear peptides of protein X1 of SARS-CoV Urbani [2]: 0.6 | Binding of serum 62 to looped/cyclic peptides of protein X1 of SARS-CoV Urbani [2]: 0.6 | Binding of serum London to linear peptides of protein X1 of SARS-CoV Urbani [2]: 0.4 | Binding of serum SARS-green to linear peptides of protein X1 of SARS-CoV Urbani [2]: 0.3 | Binding of serum SARS-green to looped/cyclic peptides of protein X1 of SARS-CoV Urbani [2]: 0.6 | Binding of serum SARS-yellow to linear peptides of protein X1 of SARS-CoV Urbani [2]: 0.4 | Binding of serum SARS-yellow to looped/cyclic peptides of protein X1 of SARS-CoV Urbani [2]: 0.4 | Binding of a rabbit serum to linear peptides [3]: 0.1 | Binding of a rabbit serum to looped peptides [3]: 0.5
